Source: patent US20190002452A1 (GUANGZHOU HENOVCOM BIOSCIENCE CO., LTD, priority 2016, published 2019)

Target: T1, human farnesol receptor protein hFXR (Homo sapiens, UniProt Q96RI1)
T1 construct: hexahistidine (His6)
T1 sequence (Q96RI1 1-486): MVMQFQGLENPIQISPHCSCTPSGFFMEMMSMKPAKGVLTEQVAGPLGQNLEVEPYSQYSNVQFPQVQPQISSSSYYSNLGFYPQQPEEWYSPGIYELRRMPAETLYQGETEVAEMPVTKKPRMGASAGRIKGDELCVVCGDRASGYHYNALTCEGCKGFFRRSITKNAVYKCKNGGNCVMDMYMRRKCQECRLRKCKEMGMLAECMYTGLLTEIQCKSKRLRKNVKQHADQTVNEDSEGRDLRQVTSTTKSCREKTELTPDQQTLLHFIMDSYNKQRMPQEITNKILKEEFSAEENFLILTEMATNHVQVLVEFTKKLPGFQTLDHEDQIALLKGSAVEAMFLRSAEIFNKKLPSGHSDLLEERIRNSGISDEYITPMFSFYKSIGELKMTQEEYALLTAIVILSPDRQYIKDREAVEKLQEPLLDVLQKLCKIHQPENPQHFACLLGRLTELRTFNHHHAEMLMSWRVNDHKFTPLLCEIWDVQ
Assay: AlphaScreen assay of FXR agonist activity in vitro: effect on binding between human farnesol receptor protein and its coactivator (SRC1-2)
Assay type: biochemical
Conditions: hFXR 100 nM, peptide bSRC1-2 50 nM, 2 hr incubation at room temperature
Procedure: FXR agonist activity in vitro for the chemicals prepared in the above examples is measured.
AlphaScreen-based assays are performed with a hexahistidine detection kit manufactured by Perkins-Elmer, for measuring the effect of chemical compounds on the binding between human farnesol receptor protein and its coactivator (SRC1-2), the method is shown as follows:
1) Preparing a mixture comprising human farnesol receptor protein hFXR (100 nM, 15 μL/well), peptide bSRC1-2 (50 nM, 15 μL/well), 10× AlphaScreen buffer solution (15 μL/well and DI water (60 μL/well), and then transferring 105 μL/well of the mixture to a 96-well plate; 2) Diluting the chemicals prepared in the above examples by twice gradient 12×, with 15 μL/well; 3) Adding donor beads and acceptor beads, 30 μL/well in total; (attention: the beads are light-sensitive) 4) Incubating in dark at room temperature for 2 hr; 5) Transferring 40 μL/well of the mixture to a 384-well plate with 3 replicates, and then centrifuging at 1000 rpm for 1 min, to make liquid mixed well underneath the wells. (attention: photopathic operation); 6) In a dark room, reading the plate (by Homogeneous luminescent immunoassay system) to obtain EC50 with a GraphPad Prism5 software.

Molecule | EC50 [nM]
O=C(O)c1ccc2nc(N3CCC4(CC(OCc5c(-c6c(F)cccc6F)noc5C5CC5)C4)C3)oc2c1 (stereo not drawn) [Example 39, 2-(2-((5-cyclopropyl-3-(2,6-difluorophenyl)isoxazol-4-yl)methoxy)-6-azaspiro[3.4]octan-6-yl) benzo[d]oxazole-6-carboxylic Acid] | 100 to 1000
O=C(O)c1ccc2nc(N3CCC4(CC(OCc5c(-c6ccccc6C(F)(F)F)noc5C5CC5)C4)C3)oc2c1 (stereo not drawn) [Example 42, 2-(2-((5-cyclopropyl-3-(2-trifluoromethylphenyl)isoxazol-4-yl)methoxy)-6-azaspiro[3.4]octan-6-yl) benzo[d]oxazole-6-carboxylic Acid] | 100 to 1000
O=C(O)c1ccc(N2CCC3(CC(OCc4c(-c5c(Cl)cccc5Cl)noc4C4CC4)C3)C2)cn1 (stereo not drawn) [Example 45] | 100 to 1000
O=C(O)c1ccc(N2CCC3(CC(OCc4c(-c5c(Cl)cccc5Cl)noc4C4CC4)C3)C2)nn1 (stereo not drawn) [Example 46, 6-(2-((5-cyclopropyl-3-(2,6-dichlorophenyl)isoxazol-4-yl)methoxy)-6-azaspiro[3.4]octan-6-yl) pyridazine-3-carboxylic Acid] | < 100
O=C(O)c1ccc2nc(N3CCC(COCc4c(-c5c(Cl)cccc5Cl)noc4C4CC4)CC3)sc2c1 [Example 48] | 100 to 1000

Other lines, results leading:

EC50 [nM] | Molecule
100 to 1000 | O=C(O)c1ccc2nc(N3CCC4(CC(OCc5c(-c6c(F)cccc6F)noc5C5CC5)C4)C3)sc2c1 (stereo not drawn) [Example 38]
< 100 | O=C(O)c1ccc2nc(N3CCc4cc(OCc5c(-c6c(F)cccc6F)noc5C5CC5)ccc4C3)sc2c1 [Example 40, 2-(6-((5-cyclopropyl-3-(2,6-difluorophenyl)isoxazol-4-yl)methoxy)-3,4-dihydroisoquinolin-2(1H)-yl) benzo[d]thiazole-6-carboxylic Acid]
100 to 1000 | O=C(O)c1ccc2nc(N3CCC4(CC(OCc5c(-c6ccccc6C(F)(F)F)noc5C5CC5)C4)C3)sc2c1 (stereo not drawn) [Example 41, 2-(2-((5-cyclopropyl-3-(2-trifluoromethylphenyl)isoxazol-4-yl)methoxy)-6-azaspiro[3.4]octan-6-yl) benzo[d]thiazole-6-carboxylic Acid]
< 100 | O=C(O)c1ccc2nc(N3CCc4cc(OCc5c(-c6ccccc6C(F)(F)F)noc5C5CC5)ccc4C3)sc2c1 [Example 43, 2-(6-((5-cyclopropyl-3-(2-trifluoromethylphenyl)isoxazol-4-yl)methoxy)-3,4-dihydroisoquinolin-2(1H)-yl) benzo[d]thiazole-6-carboxylic Acid]
< 100 | O=C(O)c1ccc(N2CCC3(CC(OCc4c(-c5c(Cl)cccc5Cl)noc4C4CC4)C3)C2)nc1 (stereo not drawn) [Example 44, 6-(2-((5-cyclopropyl-3-(2,6-dichlorophenyl)isoxazol-4-yl)methoxy)-6-azaspiro[3.4]octan-6-yl) pyridine-3-carboxylic Acid]
100 to 1000 | CS(=O)(=O)NC(=O)c1ccc2nc(N3CCC4(CC(OCc5c(-c6c(Cl)cccc6Cl)noc5C5CC5)C4)C3)sc2c1 (stereo not drawn) [Example 47, 2-(2-((5-cyclopropyl-3-(2,6-dichlorophenyl)isoxazol-4-yl)methoxy)-6-azaspiro[3.4]octan-6-yl)-N-(methylsulfonyl)benzo[d]thiazole-6-carboxamide]
100 to 1000 | (S)-2-(2-((5-cyclopropyl-3-(2,6-dichlorophenyl)isoxazol-4-yl)methoxy)-7-(fluromethyl)-6-azaspiro[3.4]octan-6-yl)-4-methoxybenzo[d]thiazole-6-carboxylic Acid [Example 20]
